The supplement of paper PMC10307832

How the values were obtained:
Assay in all cases: relative viability (nuclei count vs DMSO), 5 days (fraction); higher = more cells survive
A549 = tested on: A549
How it was run: (§1)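 Relative viability was taken as the ratio of nuclei in treated wells to nuclei in vehicle wells. Lung cancer cell lines in 1536-well plates received compounds by pin tool one day after seeding, either one drug alone or a fixed anchor-drug dose plus five library-drug doses (not always all listed) in √10 steps. Nuclei were counted on 4× images after 5 days of treatment, and values are medians of duplicate plates.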

Calu-6 = tested on: Calu-6
How it was run: as §1

EBC-1 = tested on: EBC-1
How it was run: as §1

HCC-78 = tested on: HCC-78
How it was run: as §1

IA-LM = tested on: IA-LM
How it was run: as §1

NCI-H1299 = tested on: NCI-H1299
How it was run: as §1

NCI-H1703 = tested on: NCI-H1703
How it was run: as §1

NCI-H2009 = tested on: NCI-H2009
How it was run: as §1

NCI-H358 = tested on: NCI-H358
How it was run: as §1

NCI-H460 = tested on: NCI-H460
How it was run: as §1

NCI-H661 = tested on: NCI-H661
How it was run: as §1

**Q.** Which results are given for `Nc1ccn([C@@H]2O[C@H](CO)[C@@H](O)[C@@H]2O)c(=O)n1` [Cytarabine] + CS(=O)(=O)CCNCc1ccc(-c2ccc3ncnc(Nc4ccc(OCc5cccc(F)c5)c(Cl)c4)c3c2)o1 [Lapatinib] (partner 2 µM)?
**A.** relative viability (A549; first compound 0.005 µM): 0.835; relative viability (A549; first compound 0.01581 µM): 0.648; relative viability (A549; first compound 0.05 µM): 0.569; relative viability (A549; first compound 0.1581 µM): 0.148; relative viability (A549; first compound 0.5 µM): 0.0593; relative viability (Calu-6; first compound 0.005 µM): 0.903; relative viability (Calu-6; first compound 0.01581 µM): 0.856; relative viability (Calu-6; first compound 0.05 µM): 0.921; relative viability (Calu-6; first compound 0.1581 µM): 0.512; relative viability (Calu-6; first compound 0.5 µM): 0.341; relative viability (EBC-1; first compound 0.01581 µM): 0.22; relative viability (EBC-1; first compound 0.05 µM): 0.185; relative viability (EBC-1; first compound 0.1581 µM): 0.152; relative viability (EBC-1; first compound 0.5 µM): 0.208; relative viability (HCC-78; first compound 0.005 µM): 0.799; relative viability (HCC-78; first compound 0.01581 µM): 0.595; relative viability (HCC-78; first compound 0.05 µM): 0.353; relative viability (HCC-78; first compound 0.1581 µM): 0.308; relative viability (HCC-78; first compound 0.5 µM): 0.19; relative viability (IA-LM; first compound 0.005 µM): 0.85; relative viability (IA-LM; first compound 0.01581 µM): 0.729; relative viability (IA-LM; first compound 0.05 µM): 0.588; relative viability (IA-LM; first compound 0.1581 µM): 0.297; relative viability (IA-LM; first compound 0.5 µM): 0.175; relative viability (NCI-H1299; first compound 0.005 µM): 0.976; relative viability (NCI-H1299; first compound 0.01581 µM): 0.979; relative viability (NCI-H1299; first compound 0.05 µM): 1.07; relative viability (NCI-H1299; first compound 0.1581 µM): 0.987; relative viability (NCI-H1299; first compound 0.5 µM): 0.95; relative viability (NCI-H1703; first compound 0.005 µM): 0.776; relative viability (NCI-H1703; first compound 0.01581 µM): 0.388; relative viability (NCI-H1703; first compound 0.05 µM): 0.286; relative viability (NCI-H1703; first compound 0.1581 µM): 0.16; relative viability (NCI-H1703; first compound 0.5 µM): 0.194; relative viability (NCI-H2009; first compound 0.005 µM): 0.992; relative viability (NCI-H2009; first compound 0.01581 µM): 0.878; relative viability (NCI-H2009; first compound 0.05 µM): 0.444; relative viability (NCI-H2009; first compound 0.1581 µM): 0.694; relative viability (NCI-H2009; first compound 0.5 µM): 0.349; relative viability (NCI-H358; first compound 0.005 µM): 0.471; relative viability (NCI-H358; first compound 0.01581 µM): 0.332; relative viability (NCI-H358; first compound 0.05 µM): 0.364; relative viability (NCI-H358; first compound 0.1581 µM): 0.199; relative viability (NCI-H358; first compound 0.5 µM): 0.176; relative viability (NCI-H460; first compound 0.005 µM): 0.333; relative viability (NCI-H460; first compound 0.01581 µM): 1.1; relative viability (NCI-H460; first compound 0.05 µM): 0.4; relative viability (NCI-H460; first compound 0.1581 µM): 0.0338; relative viability (NCI-H460; first compound 0.5 µM): 0.0305; relative viability (NCI-H661; first compound 0.005 µM): 0.544; relative viability (NCI-H661; first compound 0.01581 µM): 0.465; relative viability (NCI-H661; first compound 0.05 µM): 0.49; relative viability (NCI-H661; first compound 0.1581 µM): 0.278; relative viability (NCI-H661; first compound 0.5 µM): 0.233
